Results as given in paper PMC3813752 (PLoS ONE, 2013).
“Also recorded” adds a separate entry of the source. Where two headings read alike, the source gives them in different places. Marks after values point to notes of the source that are not given here.

What was measured:
human GPR55 = human GPR55 (Homo sapiens, UniProt Q9Y2T6); experiment: β-arrestin recruitment assay (PathHunter), CHO cells expressing GPR55; settings: for inhibition at 10 µM: CHO; for IC50: GPR55 IC50, β-arrestin recruitment, antagonist mode vs. LPI (1 µM); for agonist effect on β-arrestin recruitment at GPR55: test compound 10 µM, related to effect of LPI 1 µM = 100%; for functional property at GPR55 (agonist/antagonist): in words
human GPR18 [1] = biological target: T1, human GPR18 (Homo sapiens, UniProt Q14330); settings: for agonist effect on β-arrestin recruitment at GPR18: test compound 10 µM, related to effect of Δ9-THC 10 µM = 100%; for functional property at GPR18 (agonist/antagonist): in words
T1 sequence (Q14330 1-331): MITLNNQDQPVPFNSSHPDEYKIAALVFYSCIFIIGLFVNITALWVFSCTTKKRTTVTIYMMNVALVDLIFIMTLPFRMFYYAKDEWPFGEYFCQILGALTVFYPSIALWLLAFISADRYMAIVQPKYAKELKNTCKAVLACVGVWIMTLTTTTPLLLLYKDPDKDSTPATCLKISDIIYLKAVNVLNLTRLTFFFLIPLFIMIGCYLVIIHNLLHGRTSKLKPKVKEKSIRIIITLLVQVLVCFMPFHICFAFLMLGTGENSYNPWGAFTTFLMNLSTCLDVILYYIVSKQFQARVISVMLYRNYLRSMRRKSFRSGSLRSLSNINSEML

human CB1 receptor [2] = biological target: T2, human CB1 receptor (Homo sapiens, UniProt P21554); settings: determined at 100 µM; cited from earlier work
human GPR18 [3] = biological target: T1, human GPR18; experiment: cell-based; settings: for inhibition at 10 µM: CHO, read-out: % inhibition of Δ9-THC (10 µM)-induced β-arrestin recruitment at GPR18, test compound at 10 µM; for IC50: GPR18 IC50, β-arrestin recruitment, antagonist mode vs. Δ9-THC (10 µM)
human CB2 receptor [4] = biological target: T3, human CB2 receptor (Homo sapiens, UniProt P34972); experiment: Radioligand binding (heterologous competition) vs. [3H]CP55,940 at CB2
human CB2 receptor [5] = biological target: T3, human CB2 receptor; experiment: cAMP accumulation assay, CHO cells expressing CB2; type: cell-based; settings: for functional property at CB2 (agonist/antagonist): in words, standard ligands partly from the literature; for efficacy CB2, cAMP accumulation assay: at 10 µM, compared to max. effect of full agonist CP55,940 (1 µM) = 100%
human CB2 receptor [6] = biological target: T3, human CB2 receptor; settings: in words; cited from earlier work
human CB1 receptor [7] = biological target: T2, human CB1 receptor; experiment: biochemical; type: binding; settings: for Ki: membranes of CHO cells expressing human CB1, three independent experiments in duplicates, read-out: Ki CB1, heterologous competition vs. [3H]CP55,940
human CB1 receptor [8] = biological target: T2, human CB1 receptor; experiment: cAMP accumulation assay, CHO cells expressing CB1; type: cell-based; settings: for functional property at CB1 (agonist/antagonist): in words, standard ligands partly from the literature; for efficacy CB1, cAMP accumulation assay: at 10 µM, compared to max. effect of full agonist CP55,940 (1 µM) = 100%
[9] = read-out: % inhibition of LPI (1 µM)-induced β-arrestin recruitment at GPR55
[10] = Ki CB2, heterologous competition vs. [3H]CP55,940, membranes of CHO cells expressing human CB2, three independent experiments in duplicates
[11] = read-out: % inhibition of LPI (1 µM)-induced β-arrestin recruitment at GPR55, test compound at 10 µM
[12] = membranes of CHO cells expressing human CB2, three independent experiments in duplicates, read-out: Ki CB2, heterologous competition vs. [3H]CP55,940

Chain of human GPR55 (Q9Y2T6 whole entry): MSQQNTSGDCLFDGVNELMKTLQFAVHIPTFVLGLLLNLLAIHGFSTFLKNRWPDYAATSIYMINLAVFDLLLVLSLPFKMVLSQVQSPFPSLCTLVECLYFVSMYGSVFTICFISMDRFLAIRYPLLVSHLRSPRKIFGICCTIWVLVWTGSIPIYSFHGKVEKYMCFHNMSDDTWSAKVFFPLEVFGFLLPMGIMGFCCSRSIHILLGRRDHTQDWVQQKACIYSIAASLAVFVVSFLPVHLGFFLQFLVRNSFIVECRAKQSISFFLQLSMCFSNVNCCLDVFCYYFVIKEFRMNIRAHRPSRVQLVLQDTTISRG
T3 sequence (P34972 whole entry): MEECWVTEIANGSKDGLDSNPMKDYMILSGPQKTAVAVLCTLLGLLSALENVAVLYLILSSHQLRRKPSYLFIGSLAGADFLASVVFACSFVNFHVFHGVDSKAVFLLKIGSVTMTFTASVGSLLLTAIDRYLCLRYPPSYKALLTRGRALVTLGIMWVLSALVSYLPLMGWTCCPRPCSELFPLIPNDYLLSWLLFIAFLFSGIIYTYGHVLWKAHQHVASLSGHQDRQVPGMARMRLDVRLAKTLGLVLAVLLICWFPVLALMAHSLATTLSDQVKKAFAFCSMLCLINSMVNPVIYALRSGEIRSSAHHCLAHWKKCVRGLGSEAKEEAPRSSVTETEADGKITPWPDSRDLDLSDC
T2 sequence (P21554 whole entry): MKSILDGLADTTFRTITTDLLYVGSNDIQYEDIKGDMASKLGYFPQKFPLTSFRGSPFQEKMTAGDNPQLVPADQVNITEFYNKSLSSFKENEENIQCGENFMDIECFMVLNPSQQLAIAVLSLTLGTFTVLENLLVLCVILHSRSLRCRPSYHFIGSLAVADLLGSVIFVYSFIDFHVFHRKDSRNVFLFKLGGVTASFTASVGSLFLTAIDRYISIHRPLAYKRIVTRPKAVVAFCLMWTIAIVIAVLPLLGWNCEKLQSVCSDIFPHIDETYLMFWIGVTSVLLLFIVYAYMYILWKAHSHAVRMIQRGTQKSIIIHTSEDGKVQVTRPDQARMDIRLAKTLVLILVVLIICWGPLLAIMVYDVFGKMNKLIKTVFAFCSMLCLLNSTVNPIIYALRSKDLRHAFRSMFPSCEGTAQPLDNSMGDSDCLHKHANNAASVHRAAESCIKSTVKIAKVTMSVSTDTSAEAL

| SMILES | EC50 (human GPR55) | IC50 (human GPR55) | agonist effect on β-arrestin recruitment at GPR55 (human GPR55) | agonist effect on β-arrestin recruitment at GPR18 (human GPR18 [1]) | EC50 (human GPR18 [3]) | inhibition at 10 µM (human GPR18 [3]) | IC50 (human GPR18 [3]) | functional property at CB2 (agonist/antagonist) (human CB2 receptor [5]) | inhibition at 10 µM (human GPR55; [11]) | functional property at GPR55 (agonist/antagonist) (human GPR55) | functional property at GPR18 (agonist/antagonist) (human GPR18 [1]) | Ki (human CB1 receptor [7]) | Ki (human CB2 receptor [4]; [12]) | efficacy CB2, cAMP accumulation assay (human CB2 receptor [5]) | efficacy CB1, cAMP accumulation assay (human CB1 receptor [8]) | further results |
| --- | --- | --- | --- | --- | --- | --- | --- | --- | --- | --- | --- | --- | --- | --- | --- | --- |
| C=CCc1ccc(O)c(-c2cc(CC=C)ccc2O)c1 [Compound 9, 4-allyl-2-(5-allyl-2-hydroxyphenyl)phenol, reference compound] | > 10 µM | > 10 µM | 11% | 0% | > 10 µM | 2% | > 10 µM | – | – | – | – | – | – | – | – | inhibition at 10 µM (human GPR55; [9]): 0%; efficacy CB1, cAMP accumulation assay (human CB1 receptor [2]): 62% |
| C=CCc1ccc(O)c(-c2ccc(OC)c(CC=C)c2)c1 [Compound 11, 4′-O-Methylhonokiol, reference compound] | > 10 µM | 7.77 ± 0.97 µM | 4% | 0% | > 10 µM | 37% | > 10 µM | agonist | 87% | antagonist | antagonist | – | – | – | – | Ki (human CB2 receptor [4]; [10]): 0.0433 ± 0.0171 µM; functional property at CB2 (human CB2 receptor [6]): inverse agonist |
| CCCCCCc1ccc(O)c(-c2cc(CCC)ccc2OC)c1 [Compound 61a, 5-Hexyl-2′-methoxy-5′-propylbiphenyl-2-ol] | > 10 µM | ~10 µM | 0% | 0% | > 10 µM | 30% | > 10 µM | Full agonists; also recorded: agonist | – | antagonist | antagonist | 0.00957 ± 0.00543 µM | – | – | – | increase in CB2 receptor affinity of 61a compared to isomer 61b (human CB2 receptor [4]): 12 fold; Ki (human CB2 receptor [4]; [10]): 0.0238 ± 0.0071 µM; EC50 (human CB2 receptor [5]): 0.0385 ± 0.017 µM; inhibition at 10 µM (human GPR55; [9]): 58%; increase in CB1 receptor affinity of 61a compared to isomer 61b (human CB1 receptor [7]): 33 fold; increase in CB1 receptor affinity compared to the unmethylated parent biphenyl (human CB1 receptor [7]; 60a vs 60, 61a vs 61): 15 fold; functional property at CB1 (agonist/antagonist) (human CB1 receptor [8]): Full agonists; also recorded: agonist; EC50 (human CB1 receptor [8]; inhibition of forskolin-stimulated cAMP, CHO-hCB1, read-out: EC50 CB1, cAMP accumulation assay): 0.159 ± 0.076 µM |
| CCCCCCc1ccc(OC)c(-c2cc(CCC)ccc2O)c1 [Compound 61b, 5′-Hexyl-2′-methoxy-5-propylbiphenyl-2-ol] | > 10 µM | 3.25 ± 0.29 µM | 0% | 0% | > 10 µM | 22% | > 10 µM | partial agonistic activity; also recorded: agonist | 120% | antagonist | antagonist | 0.313 ± 0.125 µM | 0.281 ± 0.101 µM | – | – | EC50 (human CB2 receptor [5]): 0.595 ± 0.15 µM; reduction of CB1 receptor affinity compared to 61 (human CB1 receptor [7]): 2 fold; Kb (human CB1 receptor [8]): 1.85 µM; functional property at CB1 (agonist/antagonist) (human CB1 receptor [8]): CB1-antagonistic activity; also recorded: antagonist |
| CCCCCCCCc1ccc(O)c(-c2cc(CCC)ccc2O)c1 [Compound 63] | > 10 µM | > 10 µM | 0% | 0% | > 10 µM | 123% | 10.7 ± 0.7 µM | – | 0% | – | – | 1.66 ± 0.45 µM | 0.955 ± 0.418 µM | (52%)^b | (73%)^b | – |
| CCCCCc1ccc(O)c(-c2cc(CCCC)ccc2O)c1 [Compound 64] | > 10 µM | > 10 µM | 15% | 0% | > 10 µM | 94% | 13.9 ± 0.9 µM | – | 21% | – | – | 3.61 ± 1.35 µM | 0.234 ± 0.039 µM | (68%)^b | (122%)^b | – |
| CCCCCCc1ccc(O)c(-c2cc(CCCC)ccc2O)c1 [Compound 65] | > 10 µM | > 10 µM | 36% | 0% | > 10 µM | 116% | 11 ± 0.7 µM | – | 15% | – | – | 2.6 ± 0.09 µM | – | (49%)^b | (95%)^b | Ki (human CB2 receptor [4]; vs. [3H]CP55,940, read-out: Ki CB2): 0.67 µM |
